Laboratory results: US11053204B2, “Pyrimidinyloxy benzene derivatives as herbicides” (FMC Corporation, priority 2015, dated 2021)

Legend:
Format in all cases: in vivo
[1] = system: barnyardgrass (Echinochloa crus-galli); assay: Test C postemergence, plant response rating; conditions: for Plant response rating, Barnyardgrass: scale 0 to 100; for Barnyardgrass plant response rating: scale 0 to 100 (0 no effect, 100 complete control)
Method in brief: (§1)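 Preemergence: seeds sown in loam–sand blend or silt loam and sprayed with test chemicals in a non-phytotoxic surfactant-containing solvent. Postemergence: potted plants at 2–18 cm (1–4-leaf stage) sprayed with the same formulation. After 13–15 d in greenhouse, visual rating versus controls on 0 (no effect) to 100 (complete control) scale.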

[2] = system: ryegrass, Italian (Italian ryegrass, Lolium multiflorum); assay: Test C postemergence, plant response rating; conditions: for Plant response rating, Ryegrass, Italian: scale 0 to 100; for Ryegrass, Italian plant response rating: scale 0 to 100 (0 no effect, 100 complete control)
Method in brief: as §1

[3] = system: blackgrass (Alopecurus myosuroides); assay: Test C postemergence, plant response rating; conditions: for Plant response rating, Blackgrass: scale 0 to 100; for Blackgrass plant response rating: scale 0 to 100 (0 no effect, 100 complete control)
Method in brief: as §1

[4] = system: wheat (winter wheat, Triticum aestivum); assay: Test C postemergence, plant response rating; conditions: for Plant response rating, Wheat: scale 0 to 100; for Wheat plant response rating: scale 0 to 100 (0 no effect, 100 complete control)
Method in brief: as §1

[5] = system: morningglory (Ipomoea coccinea); assay: Test C postemergence, plant response rating; conditions: for Plant response rating, Morningglory: scale 0 to 100; for Morningglory plant response rating: scale 0 to 100 (0 no effect, 100 complete control)
Method in brief: as §1

corn (Zea mays) = assay: Test C postemergence, plant response rating; conditions: for Plant response rating, Corn: scale 0 to 100; for Corn plant response rating: scale 0 to 100 (0 no effect, 100 complete control)
Method in brief: as §1

[6] = system: nutsedge, yellow (yellow nutsedge, Cyperus esculentus); assay: Test C postemergence, plant response rating; conditions: for Plant response rating, Nutsedge, Yellow: scale 0 to 100; for Nutsedge, Yellow plant response rating: scale 0 to 100 (0 no effect, 100 complete control)
Method in brief: as §1

[7] = system: chickweed (common chickweed, Stellaria media); assay: Test C postemergence, plant response rating; conditions: for Plant response rating, Chickweed: scale 0 to 100; for Chickweed plant response rating: scale 0 to 100 (0 no effect, 100 complete control)
Method in brief: as §1

[8] = system: crabgrass, large (large crabgrass, Digitaria sanguinalis); assay: Test C postemergence, plant response rating; conditions: for Plant response rating, Crabgrass, Large: scale 0 to 100; for Crabgrass, Large plant response rating: scale 0 to 100 (0 no effect, 100 complete control)
Method in brief: as §1

[9] = system: foxtail, giant (giant foxtail, Setaria faberii); assay: Test C postemergence, plant response rating; conditions: for Plant response rating, Foxtail, Giant: scale 0 to 100; for Foxtail, Giant plant response rating: scale 0 to 100 (0 no effect, 100 complete control)
Method in brief: as §1

[10] = system: lambsquarters (Chenopodium album); assay: Test C postemergence, plant response rating; conditions: for Plant response rating, Lambsquarters: scale 0 to 100; for Lambsquarters plant response rating: scale 0 to 100 (0 no effect, 100 complete control)
Method in brief: as §1

[11] = system: oilseed rape (Brassica napus); assay: Test C postemergence, plant response rating; conditions: for Plant response rating, Oilseed Rape: scale 0 to 100; for Oilseed Rape plant response rating: scale 0 to 100 (0 no effect, 100 complete control)
Method in brief: as §1

kochia (Kochia scoparia) [12] = assay: Test C postemergence, plant response rating; conditions: for Plant response rating, Kochia: scale 0 to 100; for Kochia plant response rating: scale 0 to 100 (0 no effect, 100 complete control)
Method in brief: as §1

[13] = system: oat, wild (wild oat Avena fatua); assay: Test C postemergence, plant response rating; conditions: for Plant response rating, Oat, Wild: scale 0 to 100; for Oat, Wild plant response rating: scale 0 to 100 (0 no effect, 100 complete control)
Method in brief: as §1

soybean (Glycine max) = assay: Test C postemergence, plant response rating; conditions: for Plant response rating, Soybean: scale 0 to 100; for Soybean plant response rating: scale 0 to 100 (0 no effect, 100 complete control)
Method in brief: as §1

[14] = system: barnyardgrass (Echinochloa crus-galli); assay: Test A preemergence, visual injury rating; conditions: 0 to 100 scale (0 no effect, 100 complete control)
Method in brief: (§2)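 Visual 0–100 rating (100 = complete control) taken about 10 d post-treatment relative to untreated checks. Preemergence: directed soil spray on sown loam/sand pots. Postemergence: seedlings 2–10 cm, 1–2 leaf. Non-phytotoxic solvent formulation with surfactant.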

kochia (Kochia scoparia) [15] = assay: Test A preemergence, visual injury rating; conditions: 0 to 100 scale (0 no effect, 100 complete control)
Method in brief: as §2

N#Cc1cccc(Oc2ncc(Cl)cn2)c1CCCC(F)(F)F [Compound 72]
30: Blackgrass plant response rating ([3]; 125 g ai/ha) | Plant response rating, Foxtail, Giant ([9]; 16 g ai/ha) | Plant response rating, Foxtail, Giant ([9]; 31 g ai/ha)
10: Barnyardgrass plant response rating ([1]; 62 g ai/ha) | Barnyardgrass plant response rating ([1]; 125 g ai/ha) | Ryegrass, Italian plant response rating ([2]; 62 g ai/ha) | Plant response rating, Blackgrass ([3]; 31 g ai/ha) | Blackgrass plant response rating ([3]; 62 g ai/ha) | Plant response rating, Corn (corn (Zea mays); 16 g ai/ha) | Corn plant response rating (corn (Zea mays); 62 g ai/ha) | Plant response rating, Nutsedge, Yellow ([6]; 31 g ai/ha) | Nutsedge, Yellow plant response rating ([6]; 62 g ai/ha) | Plant response rating, Crabgrass, Large ([8]; 16 g ai/ha) | Plant response rating, Crabgrass, Large ([8]; 31 g ai/ha) | Crabgrass, Large plant response rating ([8]; 62 g ai/ha) | Oat, Wild plant response rating ([13]; 125 g ai/ha)
100: Plant response rating, Kochia (kochia (Kochia scoparia) [12]; 16 g ai/ha) | Plant response rating, Kochia (kochia (Kochia scoparia) [12]; 31 g ai/ha) | Kochia plant response rating (kochia (Kochia scoparia) [12]; 62 g ai/ha) | Kochia plant response rating (kochia (Kochia scoparia) [12]; 125 g ai/ha) | Barnyardgrass plant response rating ([14]; 500 g ai/ha) | Kochia plant response rating (kochia (Kochia scoparia) [15]; 500 g ai/ha)
40: Morningglory plant response rating ([5]; 62 g ai/ha) | Soybean plant response rating (soybean (Glycine max); 62 g ai/ha)
50: Crabgrass, Large plant response rating ([8]; 125 g ai/ha) | Plant response rating, Oilseed Rape ([11]; 16 g ai/ha)
75: Plant response rating, Morningglory ([5]; 16 g ai/ha) | Plant response rating, Lambsquarters ([10]; 16 g ai/ha) | Lambsquarters plant response rating ([10]; 62 g ai/ha)
0: Plant response rating, Wheat ([4]; 16 g ai/ha) | Plant response rating, Wheat ([4]; 31 g ai/ha) | Wheat plant response rating ([4]; 62 g ai/ha) | Oilseed Rape plant response rating ([11]; 62 g ai/ha)
60: Plant response rating, Oilseed Rape ([11]; 31 g ai/ha) | Plant response rating, Soybean (soybean (Glycine max); 16 g ai/ha)
90: Chickweed plant response rating ([7]; 62 g ai/ha) | Barnyardgrass plant response rating ([14]; 125 g ai/ha) | Kochia plant response rating (kochia (Kochia scoparia) [15]; 125 g ai/ha)
70: Morningglory plant response rating ([5]; 125 g ai/ha) | Plant response rating, Soybean (soybean (Glycine max); 31 g ai/ha) | Soybean plant response rating (soybean (Glycine max); 125 g ai/ha)
65: Plant response rating, Morningglory ([5]; 31 g ai/ha) | Plant response rating, Chickweed ([7]; 16 g ai/ha) | Oilseed Rape plant response rating ([11]; 125 g ai/ha)
5: Plant response rating, Barnyardgrass ([1]; 16 g ai/ha) | Plant response rating, Barnyardgrass ([1]; 31 g ai/ha) | Plant response rating, Ryegrass, Italian ([2]; 16 g ai/ha) | Plant response rating, Ryegrass, Italian ([2]; 31 g ai/ha) | Plant response rating, Blackgrass ([3]; 16 g ai/ha) | Wheat plant response rating ([4]; 125 g ai/ha) | Plant response rating, Nutsedge, Yellow ([6]; 16 g ai/ha) | Plant response rating, Oat, Wild ([13]; 16 g ai/ha) | Plant response rating, Oat, Wild ([13]; 31 g ai/ha) | Oat, Wild plant response rating ([13]; 62 g ai/ha)
98: Chickweed plant response rating ([7]; 125 g ai/ha)
20: Corn plant response rating (corn (Zea mays); 125 g ai/ha) | Foxtail, Giant plant response rating ([9]; 62 g ai/ha) | Foxtail, Giant plant response rating ([9]; 125 g ai/ha)
15: Ryegrass, Italian plant response rating ([2]; 125 g ai/ha) | Plant response rating, Corn (corn (Zea mays); 31 g ai/ha) | Nutsedge, Yellow plant response rating ([6]; 125 g ai/ha)
85: Plant response rating, Chickweed ([7]; 31 g ai/ha) | Plant response rating, Lambsquarters ([10]; 31 g ai/ha) | Lambsquarters plant response rating ([10]; 125 g ai/ha)
